According to patent US7659252B2, “Transdermal delivery peptides and method of use thereof” (Novomed Technologies, Inc. (Shanghai), priority 2005, dated 2010):

Legend:
[1] = system: streptozotocin-induced diabetic rats; assay: Transdermal insulin delivery: serum insulin and blood glucose; assay type: in vivo, rat; settings: for transdermal activity for delivering insulin compared to TD-1 / Blood Glucose Mean: 500 μg peptide + 70 μg insulin topical; for transdermal activity for delivering insulin compared to TD-1: 5 hrs; for Blood Glucose Mean: 5 hr value as % of the 0 hr value
Protocol: Insulin delivery: In particular, male Wistar rats were given intraperitoneal injection of straptozotocin (60 mg/kg; Sigma-Aldrich, St. Louis, […].) to make these rats in diabetic states. Seven to 10 days post injection blood glucose level was measured using One-Touch Ultra Glucometer (LifeScan, Milpitas, Calif.). The straptozocin-induced (SD-induced) diabetic rats with blood glucose level of over 20 mmol/l (normal rats are between 4 and 6 mmol/l) were selected and randomly assigned to different treatment groups, with 6 rats for each group. […] The SLA/PP is a chemical enhancer combination recently identified from high-throughput screening (Karande et al., […], Nature Biotech. 22:192). Moreover, in other transdermal treatment groups, 100 μl saline was given to each rat in that group. For the subcutaneous treatment group, 14 μg of insulin per rat was injected.
Blood was drawn from the rat tail vein at these time points and assayed for blood glucose as described above and serum insulin by radioimmunoassay (Immunotech, Czech).
Blood glucose and serum insulin were measured before and 5 hrs. after the administration as described above.

[2] = DLS measurements of insulin with or without TD-1; assay type: physicochemical
Protocol: The solutions were transferred to a centrifuge tube and spun for 10 min at 10000 rpm. 40 μl of the supernatant were filtered by ANODISC™ membrane filter with a pore size of 0.02 μm (Whatman International, Maidstone, UK) and taken for DLS measurement using DynaPro™ MS 800 (Wyatt technology Corporation/Protein Solutions, Santa Barbara, Calif.).

male Sprague-Dawley rats [3] = assay: Transdermal PT-141 delivery: penile erections, chasing, mounting; assay type: in vivo, rat; settings: cream, 1 h observation
Protocol: (§1) All behavioral studies were performed from 9:00 am to 4:00 pm at 24±1° C. While the animals were anesthetized with Urethane, the hair in an area of approximately 3.0 cm×3.0 cm in the interscapular region was carefully trimmed using scissors, with caution not to damage the skin (rats with any visible sign of skin damage were not used). Rats were allowed to recover for at least 24 hours before the experiments. One hundred ul cream containing indicated amounts of PT-141 was placed on the exposed skin and spread evenly using the side of a pipet tip.
Testing rats were divided into four groups with each group contain 6 rats.
Immediately after administration, rats were placed into individual polystyrene cages (32 cm long, 30 cm wide, 30 cm high) for behavioral observation. […] According to methods described by Berendsen and Broekkamp (1987, Eur. J. Pharmacol. 135(3):279-87), a penile erection was present when the following is observed: repeated pelvic thrust immediately followed by an upright position, an emerging engorged penis which the rat licks while eating the ejaculate. In addition, chasing was observed when the male moves forward along the female's side with its mouth licking the female's genital area, while mounting was present when the male's both front feet are off the ground and plant on the female's rump without ejaculation (Naby et al., 1992, Horm. Behav. 26:24; Randy et al., 1995, Nature 378:383).

Male Wistar rats = assay: Phage delivery across trimmed abdominal skin, phage titre in tail-vein blood; assay type: in vivo, rat
Protocol: Phage delivery: Male Wistar rats (180 g to 220 g) were housed at a constant temperature (22° C.) and relative humidity (60%) with a fixed 12 hr. light/dark cycle, and free access to food and water. While the animals were anesthetized with Vrethane (5 ml/kg of 20% solution), the hair in an area of approximately 3.0 cm×3.0 cm on the abdomen was carefully trimmed using scissors, with caution not to damage the skin (rats with any visible sign of skin damage were not used). […] One hour after the phage administration blood was withdrawn from the tail vein and immediately assayed for phage titre according to manufacturer's protocol.

male Sprague-Dawley rats [4] = assay: Transdermal apomorphine delivery, APO-induced penile erections; assay type: in vivo, rat; settings: for effect on APO transdermal delivery (APO-induced penile erections): peptide 2.0 mg/kg + APO 0.8 mg/kg, cream, 2 h observation
Protocol: as §1, with “apomorphine (APO)” for “PT-141”
Immediately after administration, rats were placed into individual polystyrene cages (32 cm long, 30 cm wide, 30 cm high) for behavioral observation. […] According to methods described by Berendsen and Broekkamp (1987, Eur. J. Pharmacol. 135(3):279-87), a penile erection was present when the following is observed: repeated pelvic thrust immediately followed by an upright position, an emerging engorged penis which the rat licks while eating the ejaculate.

hair follicles = assay: Microscopy of skin sections: hair follicle penetration; assay type: in vivo, rat; settings: for follicular penetration of insulin-FITC: 10 μg insulin-FITC co-administered with enhancer, 2 h, abdominal skin
Protocol: In particular, Insulin-FITC (Xi-an Huacheng, Xi-an, China) was dissolved in a small amount of DMF and subsequently diluted in saline for topical administration (final DMF concentration was <0.2%). […] After 2 hours the skin was carefully cleaned by 70% isopropyl alcohol and harvested by dissecting. The isolated skin was fixed with ice-cold 4% paraformaldehyde in 0.1 M phosphate buffer (PH 7.4) overnight. Following several washes with 10 mM phosphate-buffered saline (PBS PH7.4), skin samples were immersed in PBS containing 4.5% sucrose for 24 hours and then dehydrated in 10 mM PBS containing 30% sucrose till deposition. Floating horizontal and vertical sections with a thickness of 20 μm were obtained on a freezing microtome (CM1900 LEICA, Heidelberger, Nussloch, Germany). Cryosections were mounted onto poly-L-lysine-coated glasses, dried at room temperature and enveloped with 10 μl […] Mounting Medium (Vector Laboratories, Burlingame, Calif.). Fluorescence photomicrographs of the sections were obtained with OLYMPUS IX-70 microscope (OLYMPUS, Tokyo, Japan) using a filter set having excitation and emission length at 490-495 nm and 520-530 nm, respectively.

^125I-insulin = target: T1, ^125I-insulin (Sus scrofa, UniProt P01315); assay: Direct interaction between coated TD-1 and ^125I-insulin; assay type: binding, porcine; settings: up to 1 mg TD-1 per well
T1 construct: purchased Beijing Atom HighTech
Protocol: After extensive washing with PBST (PBS+0.1% Tween-20), radioactivity was measured with Gamma Radioimmunoassay Counter.

insulin = target: T2, insulin (Sus scrofa, UniProt P01315); assay: ELISA direct interaction between TD-1 and insulin (incl. reverse scheme); assay type: binding, porcine
T2 construct: pharmaceutical-grade (>98%, 30 IU/mg) porcine insulin; purchased Xuzhou Pharmaceuticals
Protocol: Insulin (100 μg) and a guinea pig anti-porcine insulin antibody (Atom High-Tech, used at 1:1000 dilution), in 100 μl of PBS, was added to each well and incubated for 2 hrs. at 37° C. After washing 6× with PBST, the plate was incubated with 1:2000 dilution of anti-guinea pig IgG conjugated with HRP (Chang-Dao Biotechnology Co. Ltd., Shanghai, China) for 1 hr. at 37° C. The plate was washed 6× with PBST, followed by the addition of 100 μl/well of TMB substrate. After incubation at room temperature for 10 mins and additional of stop solution (1 M H2SO4), absorbance was read at 450/630 nm in an ELISA reader. As a positive control, 1 ng to 1 μg of insulin was coated directly on the plates and was detected by the same procedure as described above. In areverse interaction scheme, ELISA plate wells were coated with 1 μg to 1 mg of insulin, blocked with BSA, incubated with TD-1-AngII fusion peptide (100 μg per well), incubated with rabbit polyclonal antibody against human angiotensin II (Atom High-Tech, used at 1:1000) and 1:2000 of anti-rabbit IgG conjugated with HRP (Zhong Shan Golden Bridge Biotechnology, Beijing, China), and finally assayed by TMB color reactionm using the same protocol as described above. The control for this reverse scheme experiment used 1 μg of TD-1-AngII coated directly to the wells.

[5] = co-administered TD-1 fixed at 500 μg, 5 hours
[6] = peptide topically co-administered with PH-1
[7] = 500 μg TD-1 + 70 μg porcine insulin, topical
[8] = co-administered with 70 μg insulin, 5 hours
[9] = PT-141 160 μg/kg + peptide 240 μg/kg
[10] = insulin-FITC 10 μg + TD-1, time course

T2 sequence (P01315 25-54 limits assumed): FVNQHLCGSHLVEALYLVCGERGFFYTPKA
T2 sequence (P01315 88-108 limits assumed): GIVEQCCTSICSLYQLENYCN
T1 sequence (P01315 25-54 limits assumed): as the sequence (P01315 25-54 limits assumed) above

ACSSSPSAHCG [TD-22]
transdermal activity for delivering insulin compared to TD-1 [1]: statistically significant loss of activity
Blood Glucose Mean [1]: 85.90%

ACSSSSSKHCG [TD-10]
transdermal activity for delivering insulin compared to TD-1 [1]: only a slight, insignificant decrease in activity
Blood Glucose Mean [1]: 53.79%

insulin: pharmaceutical-grade (>98%, 30 IU/mg) porcine insulin (Xuzhou Pharmaceuticals)
duration of insulin-elevating and glucose-lowering effect ([1]; 14 μg insulin, subcutaneous injection): less than 5 hours
insulin amount needed to achieve the maximum response [1, 5]: ≥ 70 µg
insulin amount sufficient to significantly enhance serum insulin and lower blood glucose [1, 5]: 35 µg
MW-R Mean ([2]; pH 2.0, saline): 14,585 Da
Radius Mean ([2]; pH 2.0, saline): 1.9 nm
MW-R Mean ([2]; pH 2.0, saline, listed as Ins): 14585 Da
MW-R Mean ([2]; pH 3.0, saline): 20,343 Da
Radius Mean ([2]; pH 3.0, saline): 2.2 nm
MW-R Mean ([2]; pH 3.0, saline, listed as Ins): 20343 Da
MW-R Mean ([2]; pH 7.0, saline): 32,328 Da
Radius Mean ([2]; pH 7.0, saline): 2.6 nm
MW-R Mean ([2]; pH 7.0, saline, listed as Ins): 32328 Da

ACSSSPAKHCG [TD-6]
transdermal activity for delivering insulin compared to TD-1 [1]: statistically significant loss of activity
Blood Glucose Mean [1]: 66.65%

CCCC[C@H](NC(C)=O)C(=O)N[C@H]1CC(=O)NCCCC[C@@H](C(=O)O)NC(=O)[C@H](Cc2c[nH]c3ccccc23)NC(=O)[C@H](CCCNC(=N)N)NC(=O)[C@@H](Cc2ccccc2)NC(=O)[C@H](Cc2c[nH]cn2)NC1=O [PT-141, Ac-Nle-Asp-His-D-Phe-Arg-Trp-Lys-OH]
numbers of PEs, chasing and mounting (male Sprague-Dawley rats [3]; PT-141 160 μg/kg alone): did not significantly increase

ACSSSPSDHCG [TD-4]
transdermal activity for delivering insulin compared to TD-1 [1]: almost completely loss of activity
Blood Glucose Mean [1]: 89.68%

ACSSSPSKHCG [TD-1]
tested rats in which enhanced transdermal penetration of a control phage was observed (Male Wistar rats; co-administered with control phage, data not shown): 20%
amount that completely abolished the transdermal activity of PH-1 (Male Wistar rats; [6]): over 5 μg
effect on transdermal activity of phages carrying the TD-2 peptide (PH-1) (Male Wistar rats; [6]): dose-dependent manner
time at which decrease of blood glucose was seen [1, 7]: 2 h
time of lowest blood glucose level [1, 7]: 8 h
lowest blood glucose level ([1]; 500 μg TD-1 + 70 μg porcine insulin, topical, at 8 hours): < 25 % of the initial blood glucose level
effect on blood glucose or serum insulin level ([1]; 500 μg TD-1 alone, without insulin, topical): no effect
Blood Glucose Mean [1]: 38.68%
TD-1 amount at which transdermal-enhancing effect reached maximum [1, 8]: > 500 µg
TD-1 amount without significant insulin-elevating and glucose-lowering effect [1, 8]: < 20 µg
time at which most PEs occurred (male Sprague-Dawley rats [4]; APO 0.8 mg/kg + TD-1 2.0 mg/kg): during the second hour
number of PEs (male Sprague-Dawley rats [4]; TD-1 0.4 mg/kg + APO 0.8 mg/kg): did not significantly increase
transdermal-enhancing effect (number of PEs) (male Sprague-Dawley rats [4]; TD-1 0.8, 2.0 and 3.2 mg/kg + APO 0.8 mg/kg): reached maximum
effect on APO transdermal delivery (APO-induced penile erections) (male Sprague-Dawley rats [4]): facilitates transdermal APO delivery
numbers of PEs, chasing and mounting (male Sprague-Dawley rats [3]; [9]): significantly increased
follicular penetration of insulin-FITC (hair follicles): penetration of insulin-FITC deep into hair follicles
relation of waiting period to extent of follicular penetration of insulin-FITC (hair follicles; TD-1 5 min, washed, waiting 0-60 min before insulin-FITC): inversely proportional
duration of follicular penetration of insulin-FITC (hair follicles; [10]): at least 24 hours
earliest time follicular penetration of insulin-FITC detectable (hair follicles; [10]): 30 min
time of maximum follicular penetration of insulin-FITC (hair follicles; [10]): 2 h
^125I-insulin bound to wells precoated with TD-1 (^125I-insulin): No significant radioactivity above the background level
direct binding to insulin (conclusion of binding assays) (insulin): does not bind insulin directly
insulin bound to precoated TD-1 (insulin; wells coated with increasing amounts of TD-1, 100 μg insulin): No significant amount of insulin was found to bind

ACNATLPHQCG [AP-1, reference compound]
transdermal activity relative to phage PH-1 (Male Wistar rats; 1 hour post topical administration): less than 0.2%
effect on transdermal activity of phages carrying the TD-2 peptide (PH-1) (Male Wistar rats; [6]): no effect
elevating serum insulin and lowering blood glucose levels ([1]; control enhancer co-administered with 70 μg insulin, topical): ineffective
effect on APO transdermal delivery (APO-induced penile erections) (male Sprague-Dawley rats [4]): no effect
numbers of PEs, chasing and mounting (male Sprague-Dawley rats [3]; [9]): did not significantly increase
follicular penetration of insulin-FITC (hair follicles): did not lead to follicular penetration

ACSSSPSKACG [TD-23]
transdermal activity for delivering insulin compared to TD-1 [1]: statistically significant loss of activity
Blood Glucose Mean [1]: 81.36%

ACSSSASKHCG [TD-3]
transdermal activity for delivering insulin compared to TD-1 [1]: almost completely loss of activity
Blood Glucose Mean [1]: 89.80%

ACSASPSKHCG [TD-24]
transdermal activity for delivering insulin compared to TD-1 [1]: statistically significant loss of activity
Blood Glucose Mean [1]: 82.17%

CSSSPSKHC [TD-2]
transdermal activity for delivering insulin compared to TD-1 [1]: statistically significant loss of activity
Blood Glucose Mean [1]: 68.44%
